Measurements reported in ChEMBL document CHEMBL1135855, “4-amidinobenzylamine-based inhibitors of urokinase” (Bioorg Med Chem Lett, 2002).

Tests used:
Serine protease 1 = Serine protease 1 (Homo sapiens, UniProt P07477); experiment: In vitro inhibition of trypsin.
[1] = molecular target: T1, Urokinase-type plasminogen activator (Homo sapiens, UniProt P00749); experiment: In vitro inhibition of plasminogen activator urokinase.
Plasminogen = Plasminogen (Homo sapiens, UniProt P00747); experiment: In vitro inhibition of Plasmin.
Sequence of Plasminogen (P00747 97-580 limits assumed): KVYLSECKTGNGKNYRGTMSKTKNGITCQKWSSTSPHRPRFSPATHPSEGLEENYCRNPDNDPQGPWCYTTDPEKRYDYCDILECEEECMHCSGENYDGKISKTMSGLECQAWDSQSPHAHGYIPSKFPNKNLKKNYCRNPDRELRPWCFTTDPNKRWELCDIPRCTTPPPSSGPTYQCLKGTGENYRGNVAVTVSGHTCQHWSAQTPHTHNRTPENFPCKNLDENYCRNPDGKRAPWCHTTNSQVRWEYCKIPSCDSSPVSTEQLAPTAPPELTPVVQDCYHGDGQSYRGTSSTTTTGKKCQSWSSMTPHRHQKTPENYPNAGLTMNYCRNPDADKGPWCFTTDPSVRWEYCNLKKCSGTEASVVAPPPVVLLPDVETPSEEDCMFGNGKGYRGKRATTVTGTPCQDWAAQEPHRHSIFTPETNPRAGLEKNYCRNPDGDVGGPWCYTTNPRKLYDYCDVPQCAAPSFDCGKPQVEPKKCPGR
Sequence of Plasminogen (P00747 581-810 limits assumed): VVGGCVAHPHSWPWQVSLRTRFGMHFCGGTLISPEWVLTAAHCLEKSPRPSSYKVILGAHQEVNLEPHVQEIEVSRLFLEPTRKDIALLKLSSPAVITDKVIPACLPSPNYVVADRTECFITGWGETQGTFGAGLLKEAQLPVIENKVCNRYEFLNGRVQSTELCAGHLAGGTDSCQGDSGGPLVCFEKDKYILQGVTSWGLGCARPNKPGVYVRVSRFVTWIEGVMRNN

Prothrombin = Prothrombin (Homo sapiens, UniProt P00734); experiment: In vitro inhibition of thrombin.
Coagulation factor X = Coagulation factor X (Homo sapiens, UniProt P00742); experiment: In vitro inhibition of Coagulation factor Xa.
Sequence of Coagulation factor X (P00742 41-179 limits assumed): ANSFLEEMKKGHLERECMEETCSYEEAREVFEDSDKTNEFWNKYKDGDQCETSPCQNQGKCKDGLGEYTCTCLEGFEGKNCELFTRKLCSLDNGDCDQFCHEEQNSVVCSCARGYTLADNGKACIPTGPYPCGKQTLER
Sequence of Coagulation factor X (P00742 235-488 limits assumed): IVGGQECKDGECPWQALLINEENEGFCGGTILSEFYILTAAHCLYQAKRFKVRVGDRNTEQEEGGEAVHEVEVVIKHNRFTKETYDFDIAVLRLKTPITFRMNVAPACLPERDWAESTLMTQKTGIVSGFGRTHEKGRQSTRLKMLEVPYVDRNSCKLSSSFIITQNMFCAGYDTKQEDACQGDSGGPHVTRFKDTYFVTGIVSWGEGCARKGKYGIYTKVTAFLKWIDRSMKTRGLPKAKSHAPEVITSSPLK

[2] = molecular target: T1, Urokinase-type plasminogen activator

Sequence of Serine protease 1 (P07477 whole entry): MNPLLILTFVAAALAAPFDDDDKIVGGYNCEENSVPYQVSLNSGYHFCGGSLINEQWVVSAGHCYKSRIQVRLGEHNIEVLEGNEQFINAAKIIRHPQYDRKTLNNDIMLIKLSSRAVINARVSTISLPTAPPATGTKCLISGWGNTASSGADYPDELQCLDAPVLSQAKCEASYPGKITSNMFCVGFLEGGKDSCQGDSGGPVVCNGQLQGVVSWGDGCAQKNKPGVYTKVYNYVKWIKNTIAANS

Row | Compound | Ki (Serine protease 1) | Ki [1] | Ki (Plasminogen) | Ki (Prothrombin) | Ki (Coagulation factor X) | Ki [2]
1 | CC(C)c1cc(S(=O)(=O)N[C@H](CO)C(=O)NCC(=O)NCc2ccc(C(=N)N)cc2)cc(C(C)C)c1C(C)C | 3.4 µM | 1.5 µM | 75 µM | 15 µM | 100 µM | 
2 | N=C(N)c1ccc(CNC(=O)CNC(=O)[C@@H](CO)NS(=O)(=O)CCc2ccccc2)cc1 | 0.9 µM | 0.49 µM | 59 µM | 33 µM | 28 µM | 
3 | CC(C)COC(=O)OC[C@@H](NS(=O)(=O)Cc1ccccc1)C(=O)NCC(=O)NCc1ccc(C(=N)N)cc1 | 0.12 µM |  | 2.4 µM | 4 µM |  | 
4 | CC(C)COC(=O)OC[C@@H](NS(=O)(=O)Cc1ccccc1)C(=O)N[C@@H](C)C(=O)NCc1ccc(C(=N)N)cc1 | 0.0048 µM | 0.043 µM | 0.15 µM | 0.05 µM | 0.41 µM | 
5 | N=C(N)c1ccc(CNC(=O)CNC(=O)[C@@H](N)CO)cc1 | 7 µM |  | > 1000 µM | > 1000 µM | > 1000 µM | 
6 | N=C(N)c1ccc(CNC(=O)CNC(=O)[C@@H](N)CCC(=O)O)cc1 | 5 µM | 22 µM | > 1000 µM | > 1000 µM | > 1000 µM | 
7 | CC(NS(=O)(=O)c1ccc2ccccc2c1)C(=O)NCc1ccc(C(=N)N)cc1 (single isomer, unassigned; (-)) |  | 9.6 µM |  |  |  | 
8 | CC(=O)N[C@H](CO)C(=O)NCC(=O)NCc1ccc(C(=N)N)cc1 | 14 µM |  | > 1000 µM | > 1000 µM | > 1000 µM | 
9 | N=C(N)c1ccc(CNC(=O)CNC(=O)[C@@H](CO)NS(=O)(=O)c2ccc3ccccc3c2)cc1 | 1.8 µM | 1.2 µM | 32 µM | 11 µM | 28 µM | 
10 | N=C(N)c1ccc(CNC(=O)CNC(=O)[C@@H](CO)NS(=O)(=O)Cc2ccccc2)cc1 | 0.15 µM |  |  | 13 µM | 3 µM | 
11 | N/C(=N\O)c1ccc(CNC(=O)CNC(=O)[C@@H](CO)NS(=O)(=O)Cc2ccccc2)cc1 | > 1000 µM |  | > 1000 µM | > 1000 µM | > 1000 µM | 
12 | C[C@H](NC(=O)[C@@H](CO)NS(=O)(=O)CCc1ccccc1)C(=O)N[C@H]1CCCN(C(=N)N)C1O (stereo partly drawn) |  |  |  |  |  | 3.1 µM
13 | N=C(N)c1ccc(CNC(=O)CNC(=O)[C@@H](CO)NS(=O)(=O)CC2CCCCC2)cc1 | 0.11 µM |  | 17 µM | 10 µM | 2 µM | 
14 | CC(C)(C)OC(=O)NC(CCC(=O)O)C(=O)NCC(=O)NCc1ccc(C(=N)N)cc1 (stereo not drawn) | 2.8 µM | 82 µM | > 1000 µM | > 1000 µM | > 1000 µM | 
15 | C[C@H](NC(=O)[C@@H](CO)NS(=O)(=O)Cc1ccccc1)C(=O)NCc1ccc(C(=N)N)cc1 | 0.0033 µM |  | 0.54 µM | 0.11 µM | 2.1 µM | 
16 | CC(C)(C)OC(=O)N[C@@H](CO)C(=O)NCC(=O)NCc1ccc(C(=N)N)cc1 | 3.4 µM |  | 210 µM | 69 µM | 110 µM | 
17 | N=C(N)c1ccc(CNC(=O)CNC(=O)[C@@H](CO)NC(=O)OCc2ccccc2)cc1 | 4.3 µM | 4 µM | 160 µM | 230 µM | 140 µM | 
18 | N=C(N)c1ccc(CNC(=O)CNC(=O)[C@@H](CO)NS(=O)(=O)/C=C/c2ccccc2)cc1 | 1.7 µM | 2.2 µM | 140 µM | 15 µM | 15 µM | 
19 | N=C(N)c1ccc(CNC(=O)CNC(=O)[C@H](N)CO)cc1 | 6.9 µM |  | > 1000 µM | 200 µM | > 1000 µM | 
20 | N=C(N)c1ccc(CNC(=O)CNS(=O)(=O)c2ccc3ccccc3c2)cc1 | 0.65 µM |  | 43 µM | 16 µM | 10.6 µM | 
21 | COC(=O)OC[C@@H](NS(=O)(=O)Cc1ccccc1)C(=O)NCC(=O)NCc1ccc(C(=N)N)cc1 | 0.064 µM |  | 10.9 µM | 3 µM | 0.34 µM | 
22 | N=C(N)c1ccc(CNC(=O)[C@H]2CCCN2C(=O)[C@@H](CO)NS(=O)(=O)Cc2ccccc2)cc1 | 0.0032 µM |  | 0.15 µM | 0.012 µM | 2 µM | 
23 | CC(C)(C)OC(=O)N[C@H](CO)C(=O)NCC(=O)NCc1ccc(C(=N)N)cc1 | 4.5 µM | 9 µM | > 1000 µM | 170 µM | 140 µM | 
